Assay results as given in patent publication US9827224B2, “Methods and compositions for ameliorating pancreatic cancer” (University of South Alabama, priority 2010, dated 2017).

Experiments:
Panc1 and MiaPaCa cells [1] = experiment: Cell viability assay (Vybrant MTT cell proliferation assay), results stated for both cell lines together; type: cell-based, Human; conditions: for effect on CXCL12-induced chemo-resistance (gemcitabine): pre-treatment 1 h (AMD3100 5 μg/mL, LY294002 20 μM, PD98059 25 μM), then gemcitabine + CXCL12
Protocol: (§1) After 72 h of treatment, cell growth was determined by using Vybrant MIT cell proliferation assay. Growth was calculated as percent (%)=[{(A/B)−1}×100], where A and B are the absorbance of treatment and control cells, respectively. To examine the effect of CXCR4 targeting, cells were pre-incubated with small molecule CXCR4 antagonist, AMD3100 (5 μg/mL), for 1 h. To delineate the role of Akt and ERK pathways, cells were pretreated for 1 h with LY294002 (20 μM) and PD98059 (25 μM), respectively.

NF-κB = NF-κB transcriptional activity assay (luciferase reporter); type: cell-based, Human; conditions: 24 h
Protocol: To measure the LEF/TCF and NF-κB transcriptional activity, pancreatic cancer cells (1×10^5) were seeded in 12-well plates. After 24 h incubation, cells were transiently transfected with the luciferase promoter-reporter constructs (TOP flash, FOPflash or pGL4.32[luc2P/NF-kB-RE/Hygro]. TOPflash reporter plasmid contains three copies of the Tcf/Lef sites upstream of a thymidine kinase (TK) promoter and the Firefly luciferase gene, while in FOPflash, Tcf/Lef sites are mutated and therefore it serves as a control for measuring nonspecific activation of the reporter. Cells were also co-transfected with a reporter plasmid, containing Renilla reniformis luciferase gene downstream of the TK promoter, to control for the transfection efficiency. All transfections were performed using FuGene as a transfection reagent according to the manufacturers' recommendations. Cells were treated with CXCL12 (100 ng) 24 h post TOPflash/FOPflash or pGLA.32[luc2P/NF-kB-RE/Hygro] transfection, and after the next 24 h, total protein was isolated in passive lysis buffer. Luciferase activity was measured using the Dual Luciferase Assay System. All experiments were done in triplicate and relative luciferase activity reported as the fold induction after normalization for transfection efficiency.

Akt = experiment: Western blot of Akt activation (total and phospho-forms) in Panc1 and MiaPaCa cells; type: cell-based, Human
Protocol: (§2) Cells were processed for protein extraction and western blotting using standard procedures. Briefly, cells were washed twice with PBS and scraped into NP-40 lysis buffer containing protease and phosphotase inhibitors. Cell lysates were passed through a needle syringe to facilitate the disruption of the cell membranes and were centrifuged at 14,000 rpm for 20 min at 4° C., and supematants were collected. Proteins (10-50 μg) were resolved by electrophoresis on 10% SDS-PAGE, transferred onto polyvinylidene difluoride (PVDF) membrane and subjected to standard immunodetection procedure using specific antibodies: AKT, pAKT ERK1/2, pERK1/2, Bcl-2, Bcl-xL, FAk, pFAk, Survivin, β-catenin and BAD (1:1000), pBAD (1:500), Notch-1 (1:200) and β-actin (1:20000). All secondary antibodies were used at 1:2500 dilutions. Blots were processed with ECL Plus Western Blotting detection kit and the signal detected using an LAS-3000 image analyzer (Fuji Photo Film Co., Tokyo, Japan).

ERK = experiment: Western blot of ERK activation (total and phospho-forms) in Panc1 and MiaPaCa cells; type: cell-based, Human; conditions: for effect on CXCL12-induced activation of ERK pathway: pre-treatment 1 h (AMD3100, LY294002 20 μM, PD98059 25 μM), 15 min post-CXCL12, Panc1 and MiaPaCa
Protocol: as §2

FAK = experiment: Western blot of FAK activation in Panc1 and MiaPaCa cells; type: cell-based, Human; conditions: CXCL12 100 ng/mL, 5-30 min
Protocol: as §2

BAD = experiment: Western blot of BAD phosphorylation in Panc1 and MiaPaCa cells; type: cell-based, Human; conditions: CXCL12-treated Panc1 and MiaPaCa
Protocol: as §2

[2] = test system: Bcl-2, Bcl-xL, Notch-1 and survivin; experiment: Western blot of survival protein expression in pancreatic cancer cells; type: cell-based, Human; conditions: CXCL12-treated pancreatic cancer cells
Protocol: as §2

Panc1 and MiaPaCa cells [3] = experiment: DNA fragmentation assay; type: cell-based, Human; conditions: gemcitabine 5 and 10 μM + CXCL12 100 ng/mL, 48 h, compared to gemcitabine alone
Protocol: Cells were washed twice with phosphate buffer saline (PBS) and DNA was extracted using DNAzol reagent. 2 μg of isolated DNA was resolved on 1.0% agarose gel containing ethidium-bromide (EtBr) and observed under a LAS-3000 image analyzer (Fuji Photo Film Co.).

activated caspases = experiment: Measurement of apoptosis in situ (CaspACE FITC-VAD-FMK); type: cell-based, Human; conditions: gemcitabine 5 μM + CXCL12 100 ng/mL, compared to gemcitabine alone
Protocol: Apoptosis was detected by staining the cells with CaspACE FITC-VAD-FMK solution in PBS for 2 h at 37° C. CaspACE™ FITC-VAD-FMK In Situ Marker is a fluorescent analog of the pan-caspase inhibitor Z-VAD-FMK (carbobenzoxy-valyl-alanylaspartyl-[O-methyl]-fluoromethylketone), which irreversibly binds to activated caspases and is a surrogate for caspase activity in situ. Following staining with CaspACE FITC-V AD-FMK, cells were fixed with 4% paraformaldehydede at room temperature and washed with PBS. The bound fluorescent marker was detected under a Nikon Eclipse TE2000-U fluorescent microscope (Nikon Instruments Inc, Melville, N.Y.).

SHH = experiment: CXCL12-induced sonic hedgehog (SHH) expression by Q-RT-PCR and Western blot; type: cell-based, Human; conditions: CXCL12, 0-48 hours, Panc1 and MiaPaCa
Protocol: Panc1 and MiaPaCa cells were treated with CXCL12 and expression of SHH was measured by Q-RT-PCR and Western blot analysis.
Q-RT-PCR: Pancreatic cancer cells (Panc1 and MiaPaCa) were treated with CXCL12 for different time point (0, 4, 8, 24, 48 hours) for Q-RT-PCR analysis. To confirm the induced expression of sonic hegedehog (SHH), reverse transcriptase based-PCR (RT-PCR) analysis was performed, using SHH-specific primers. Briefly, cDNA was synthesized from 5 μg total RNA using SuperScript™ II Reverse Transcriptase (Invitrogen) and oligo(dT) primer. Two micro liter of first strand cDNA (1:10 dilution) was amplified using the SHH specific and GAPDH specific primers control. Amplified products were resolved through a 1.5% agarose gel containing ethidium bromide and analyzed using an Alpha Imager gel documentation system (Alphalnnotech, San Leandro, Calif.).
Immunoblot analyses: NP-40 lysis buffer containing protease and phosphatase inhibitors (Roche Diagnostics. 50 μg protein was resolved by SDS-PAGE (8-12%). The primary antibodies were: anti-sonic hedgehog (SHH, 1:2000, rabbit monoclonal, Millipore. Secondary antibody (Santa Cruz Biotechnology) was horseradish peroxidase (HRP)-conjugated and was used a 1:2000 dilution. Bound immunocomplexes were detected using ECL Plus chemiluminescent detection reagent (GE Healthcare, Piscataway, N.J.).

MiaPaCa cells = experiment: Cell viability assay (MTT), gemcitabine cytotoxicity; type: cell-based, Human; conditions: 5.0 μM gemcitabine, 72 h, serum-containing media, compared to untreated cells
Protocol: as §1

Panc1 cells = experiment: as above; type: cell-based, Human; conditions: 5.0 μM gemcitabine, 72 h, serum-containing media, compared to untreated cells
Protocol: as §1

[4] = human volunteers, intra-venous injection; cited from earlier work
[5] = CXCL12 100 ng/mL, 5-30 min, Panc1 and MiaPaCa

In the case of “CXCL12: Recombinant human CXCL12, a ligand for CXCR4”, the resistance to gemcitabine-cytotoxicity (Panc1 and MiaPaCa cells [1]; CXCL12 100 ng/mL, gemcitabine 0-10 μM, both cell lines, p<0.05) is reported as “induced significant resistance”, the induction of growth (Panc1 and MiaPaCa cells [1]; CXCL12 100 ng/ml, absence of serum growth factors, range over MiaPaCa and Panc1) is reported as 29-33% and the increase of growth (Panc1 and MiaPaCa cells [1]; CXCL12 100 ng/ml, presence of serum growth factors, range over MiaPaCa and Panc1) is reported as 11-13%. For the same compound, the “induction of transcriptional activity of NF-κB responsive promoter” value (NF-κB; MiaPaCa, CXCL12-treated) was 2.26 fold, the “induction of transcriptional activity of NF-κB responsive promoter” value (NF-κB; Panc1, CXCL12-treated) was 2.98 fold and the “activation of Akt (phospho-form)” value (Akt; [5]) was “significant activation”. The “activation of ERK (phospho-form)” value (ERK; [5]) was “significant activation”, the “activation of FAK (phospho-form)” value (FAK) was “significant activation” and the “level of phospho-BAD” value (BAD) was “increased level of phospho-BAD”. For the same compound, the “expression of Bcl-2, Bcl-xL, Notch-1 and survivin proteins” value [2] was “significantly induced”, the DNA fragmentation (Panc1 and MiaPaCa cells [3]) was “reduced DNA fragmentation” and the activity of caspases (activated caspases) was “enhanced activity of caspases”. For the same compound, the “expression of SHH” value (SHH) was “induced expression of SHH”.
In the case of `COc1cccc(-c2cc(=O)c3ccccc3o2)c1N` [PD98059, reference compound], the “effect on CXCL12-induced chemo-resistance (gemcitabine)” value (Panc1 and MiaPaCa cells [1]) is reported as “significant negative impact” and the “effect on CXCL12-induced activation of ERK pathway” value (ERK) is reported as “specifically inhibited”.
`Nc1ccn([C@@H]2O[C@H](CO)[C@@H](O)C2(F)F)c(=O)n1` [gemcitabine] gave a gemcitabine cytotoxicity (MiaPaCa cells) of 50.7% and a gemcitabine cytotoxicity (Panc1 cells) of 52.3%.
For `c1cc(CN2CCCNCCNCCCNCC2)ccc1CN1CCCNCCNCCCNCC1` [AMD3100, Plerixafor, reference compound], the “effect on CXCL12-induced chemo-resistance (gemcitabine)” value (Panc1 and MiaPaCa cells [1]) was “abolished”, the “effect on CXCL12-induced growth promotion” value (Panc1 and MiaPaCa cells [1]; pre-treatment 1 h, AMD3100 5 μg/mL, then CXCL12) was “abolished” and the “effect on CXCL12-induced activation of Akt pathway” value (Akt; pre-treatment 1 h (AMD3100 5 g/mL, LY294002 20 μM, PD98059 25 μM), 15 min post-CXCL12, Panc1 and MiaPaCa) was “inhibited”. For the same compound, the “effect on CXCL12-induced activation of ERK pathway” value (ERK) was “inhibited” and the side effects [4] was “minimal side effects”.
